ChEMBL document CHEMBL1138531, “Pharmacokinetics of penicillin G in infants with a gestational age of less than 32 weeks” (Antimicrob Agents Chemother, 2007)

Experiments:
Format in all cases: ADME, organism-based
[1] = Volume of distribution in neonates; details: human, in vivo
[2] = Volume of distribution in iv dosed neonates with gestational age of 27 to 40 weeks; details: human, in vivo
[3] = Elimination half life in preterm neonates with septicemia or invasive infections with gestational age of less than 32 weeks at 50000 U/kg, iv administered every 12 hrs; details: human, in vivo, read-out: beta t1/2 (converted)
[4] = Clearance in iv dosed neonates with gestational age of 27 to 40 weeks; details: human, in vivo
[5] = Half life in iv dosed neonates with gestational age of 27 to 40 weeks; details: human, in vivo
[6] = Clearance in preterm neonates with septicemia or invasive infections with gestational age of less than 32 weeks at 50000 U/kg, iv administered every 12 hrs; details: human, in vivo
Homo sapiens [7] = assay: Intercompartmental clearance in preterm neonates with septicemia or invasive infections with gestational age of less than 32 weeks at 50000 U/kg, iv administered every 12 hrs; details: in vivo
[8] = Volume of distribution in central compartment in preterm neonates with septicemia or invasive infections with gestational age of less than 32 weeks at 50000 U/kg, iv administered every 12 hrs; details: human, in vivo, read-out: Vc
Homo sapiens [9] = assay: Apparent peripheral volume of distribution in preterm neonates with septicemia or invasive infections with gestational age of less than 32 weeks at 50000 U/kg, iv administered every 12 hrs; details: in vivo
[10] = Volume of distribution at steady state in preterm neonates with septicemia or invasive infections with gestational age of less than 32 weeks at 50000 U/kg, iv administered every 12 hrs; details: human, in vivo, read-out: Vdss

Vd [1] [L/kg]	Vd [2] [L/kg]	half-life [3] [h]	clearance [4] [mL/min/kg]	half-life [5] [h]	clearance [6] [mL/min]	CL (Homo sapiens [7]) [L/h]	Vd [8] [L]	Vp/F (Homo sapiens [9]) [L]	Vd [10] [L]	Compound
0.3										CC1(C)S[C@@H]2[C@H](NC(=O)[C@H](N)c3ccccc3)C(=O)N2[C@H]1C(=O)O [AMPICILLIN]
0.45	0.61	3.9	2	3.8	1.72	0.774	0.359	0.152	0.54	CC1(C)S[C@@H]2[C@H](NC(=O)Cc3ccccc3)C(=O)N2[C@H]1C(=O)O [PENICILLIN G]
0.41										CC1(C)S[C@@H]2[C@H](NC(=O)[C@H](N)c3ccc(O)cc3)C(=O)N2[C@H]1C(=O)O [AMOXICILLIN]
